# Test results: patent US20260345527A1 (priority 2022, published 2026)
# Where two headings read alike, the source gives them in different places.
# Columns and labels:
# TDP-43 [1] = assay: TDP-43 aggregation in cytoplasm by immunofluorescence staining and fluorescence microscopy in H2O2-treated SH-SY5Y cells
# TDP-25 = assay: intracellular localization of TDP-25 in SH-SY5Y cells transfected with GFP-TDP-25 (fluorescence microscopy)
# Description: (§1) In FIG. 4, blue fluorescence indicates the nucleus with DAPI, and green fluorescence indicates TDP-25 with GFP.
# (§2) To construct an aggregation model of TDP-43 protein in the SH-SY5Y cells, which are human neuroblastoma cell lines, a GFP-TDP-25 plasmid was transfected into cells, and it may be confirmed that the transfected GFP-TPD-25 (GFP: green fluorescent protein) is present in the cytoplasm.
# TDP-43 [2] = assay: TDP-43 aggregation (TDP-43 aggregation kit) in H2O2-treated SH-SY5Y cells
# TDP-43 protein = assay: inhibition of TDP-43 protein aggregation in SH-SY5Y cells (summary statements)
# HSPB8 = assay: protein expression of chaperone HSPB8 in SH-SY5Y cells
# [3] = system: HSPB8 (Heat Shock Protein Family B (Small) Member 8); settings: sh-sy5y cells, 24 h
# ALS = settings: approved ALS therapeutics, background; cited from earlier work
# insoluble TDP-43 = assay: expression of insoluble TDP-43 in GFP-TDP-25 TDP-43 aggregation model of SH-SY5Y cells; settings: GFP-TDP-25 transfected cells; metformin (5 mM), colchicine (1000 nM) alone or in combination; FIG. 4 B and C
# Description: as §1, §2
compound,measurement,setting,value
COc1cc2c(c(OC)c1OC)-c1ccc(OC)c(=O)cc1[C@@H](NC(C)=O)CC2 [colchicine],increase of MAP1LC3A mRNA expression,"MAP1LC3A; sh-sy5y cells, 24 h",2-3 times
same,increase of TFEB mRNA expression,"TFEB; sh-sy5y cells, 24 h",2-3 times
same,effect on TDP-43 aggregation in the cytoplasm,TDP-43 [1],did not inhibit
same,effect on TDP-25 accumulation in the cytoplasm,TDP-25,did not affect
same,effect on hydrogen peroxide-induced TDP-43 aggregation,TDP-43 [2],slight effect
same,reduction/inhibition of TDP-43 aggregation (summary),TDP-43 protein,hardly reduced
same,change in HSPB8 protein expression,HSPB8,inadequate change
same,increase of SQSTM1/p62 mRNA expression,"SQSTM1/p62; sh-sy5y cells, 24 h",2-3 times
same,increase in HSPB8 mRNA expression,[3],approximately 2 fold
"OO [hydrogen peroxide (H2O2), hydrogen peroxide]",induction of TDP-43 aggregation in the cytoplasm,"TDP-43 [1]; 1 mM hydrogen peroxide, 1 hour, FIG. 3 A and B",significantly induced TDP-43 aggregation in the cytoplasm
same,induction of abnormal aggregation of TDP-43,"TDP-43 [2]; 1 mM hydrogen peroxide, 1 hour, FIG. 2",significantly induced abnormal aggregation of TDP-43
Nc1nc2ccc(OC(F)(F)F)cc2s1 [Riluzole],effect on life expectancy or disease progression in ALS patients,ALS,help extend life expectancy in patients by several months or delay the progression of the disease at an early stage
same,therapeutic effect in ALS,ALS,only a symptom-relieving effect
CC1=NN(c2ccccc2)C(=O)C1 [Edaravone],effect on life expectancy or disease progression in ALS patients,ALS,help extend life expectancy in patients by several months or delay the progression of the disease at an early stage
same,therapeutic effect in ALS,ALS,only a symptom-relieving effect
CN(C)C(=N)N=C(N)N [metformin],MAP1LC3A mRNA expression,"MAP1LC3A; metformin alone, 0.1-5 mM, 24 hours, FIG. 7",no effect
same,TFEB mRNA expression,"TFEB; metformin alone, 0.1-5 mM, 24 hours, FIG. 5",no effect
same,effect on TDP-43 aggregation in the cytoplasm,"TDP-43 [1]; hydrogen peroxide-treated cells, drugs alone or in combination, FIG. 3 A and B",did not inhibit
same,effect on TDP-25 accumulation in the cytoplasm,"TDP-25; GFP-TDP-25 transfected cells, drugs alone or in combination, FIG. 4 A",did not affect
same,effect on hydrogen peroxide-induced TDP-43 aggregation,"TDP-43 [2]; 24 h drug, then 1 mM H2O2 for 1 hour, metformin 0.1-5 mM, colchicine 1-1000 nM, alone or in combination, FIG. 2",did not have a significant effect
same,reduction/inhibition of TDP-43 aggregation (summary),"TDP-43 protein; colchicine alone, metformin alone, or in combination",hardly reduced
same,change in HSPB8 protein expression,"HSPB8; metformin (5 mM) alone or colchicine (1000 nM) alone, FIG. 1 D",inadequate change
same,SQSTM1/p62 mRNA expression,"SQSTM1/p62; metformin alone, 0.1-5 mM, 24 hours, FIG. 6",no effect
same,effect on expression of insoluble TDP-43,insoluble TDP-43,slightly reduced
